Results taken from patent publication US20060210479A1 (Dow Global Technologies Inc., priority 2004, published 2006).
Several values for one entry are separate records, joined by “and”; a condition that tells them apart may be missing. Identical values can stand only once. Like-named read-outs stand apart in the source and are kept apart here.

Assays:
LNCaP cell line = test: Chelate permeability: fluorescence of cytoplasm and membrane fractions; type: cell-based, human
[1] = tested on: PZ-HPV-7 normal cell line; test: as above; type: cell-based
[2] = tested on: HEK293 cells, normal (non-induced); test: Permeability of chelates to HEK293 cells, fluorescence of fractions; type: cell-based, human; settings: HEK293 Normal; 1 mM chelate, 2 hours
Procedure: (§1) The human kidney transformed HEK293 cells (obtained from the ATCC) were grown in Eagle's Minimum Essential Medium (EMEM) supplemented with 10% (v/v) heat-inactivated fetal bovine serum, sodium pyruvate, nonessential amino acids and antibiotics in a humidified 5% CO2 atmosphere at 37° C. Medium and supplements were purchased from Gibco bRL (Grand Island, N.Y.). Etoposide was obtained from Sigma (St. Louis, Mo.) and prepared as 20 mM solution in dimethyl sulfoxide (DMSO). For treatments, etoposide was applied to the HEK293 cultures at 1:1000 dilution (final concentration of 20 μM) after cell became 75% confluent. As a control, cells were fed with medium containing 0.1% DMSO in the absence of etoposide. After treatment with etoposide, cells were incubated in a humidified 5% CO2 at 37° C. for 24 hours. HEK293 cells were collected by removing treatment medium and washed 2 times with 10 mM HEPES buffer. Final cell pellets were resuspended in a small amount of HEPES and stored at 4° C. for further study.
(§2) Cells were grown to confluence in T-150 flasks (about 2×10^6 cells). […] After treatment, the chelate or analogue supernatant was discarded and the cells were rinsed three times at room temperature with 10 mM HEPES. Cells were then removed from the flask by manual scraping. Cells were transferred to a 50-mL conical tube and centrifuged (400×g) for 5 minutes and the test material removed. Remaining cells were rinsed twice with cold 10 mM HEPES. Cells were used in cell binding assays.

[3] = tested on: etoposide-induced (apoptotic) HEK293 cells; test: Permeability of chelates to apoptotic cells, fluorescence of fractions; type: cell-based, human
Procedure: as §1, §2

C-33A cervical cells = settings: read-out: Chelate Concentration Producing 50% Inhibition of Cancer Cell Growth, MTS, 96 hour continuous exposure
Procedure: (§3) To assess whether or not chelate treatment of cancer cells could produce a net modulation in cell growth, the overall growth inhibitory effect of chelates on various cancer cell lines was tested. The concentration of chelate necessary to produce 50% growth inhibition was measured, as determined by detection of the formazan product of cellular […] of 3-(4,5-dimethylthiazol-2-yl)-5-(3-carboxymethoxyphenyl)-2-(4-sulfophenyl)-2H-tetrazolium, inner salt (MTS).

[4] = tested on: CaCo-2 colorectal adenocarcinoma cells; settings: read-out: Chelate Concentration Producing 50% Inhibition of Cancer Cell Growth, MTS, 96 hour continuous exposure
Procedure: as §3

[5] = tested on: Caki-1 renal cell carcinoma cells; settings: read-out: Chelate Concentration Producing 50% Inhibition of Cancer Cell Growth, MTS, 96 hour continuous exposure
Procedure: as §3

[6] = tested on: DU-145 prostate adenocarcinoma cells
Procedure: as §3

[7] = tested on: HLaC head & neck squamous cell carcinoma cells; settings: read-out: Chelate Concentration Producing 50% Inhibition of Cancer Cell Growth, MTS, 96 hour continuous exposure
Procedure: as §3

[8] = tested on: HT-29 colon adenocarcinoma cells; settings: read-out: Chelate Concentration Producing 50% Inhibition of Cancer Cell Growth, MTS, 96 hour continuous exposure
Procedure: as §3

[9] = tested on: LnCaP prostate adenocarcinoma cells
Procedure: as §3

[10] = tested on: MDA-231 breast adenocarcinoma cells
Procedure: as §3

[11] = tested on: MDA-231-M breast adenocarcinoma cells, metastatic clone; settings: read-out: Chelate Concentration Producing 50% Inhibition of Cancer Cell Growth, MTS, 96 hour continuous exposure
Procedure: as §3

[12] = tested on: NCM460 normal human colon epithelial cells; settings: read-out: Chelate Concentration Producing 50% Inhibition of Cancer Cell Growth; NCM460 control line; MTS; 96 hour continuous exposure
Procedure: as §3

[13] = tested on: SK-MES lung non-small cell squamous carcinoma cells; settings: read-out: Chelate Concentration Producing 50% Inhibition of Cancer Cell Growth, MTS, 96 hour continuous exposure
Procedure: as §3

[14] = tested on: cancer cells (LNCaP, Caco-2, T84); test: Chelate permeability and specificity, cancer cells versus normal cells (summary); type: cell-based, human; settings: cancer cells
NCM-460 cells = settings: for EuQCTME Cell Binding (fluorescence per well): 1 mM
DU145 cells = settings: for EuQCTME Cell Binding (fluorescence per well): 1 mM
Caco-2 cells = settings: 1 mM
[15] = tested on: excised human colorectal tissue; settings: 2 mM/5% ethanol aerosol spray, rinsing, UV 320 nm
Procedure: Excised tissue was received from human patients undergoing radical resection of the colon as a result of invasive cancer. Sections of tissue were received within 30 minutes of resection and the chelate solution applied as an aerosol spray followed by sequential aqueous rinsing to remove unbound chelate. The resulting tissue was then visualized under UV irradiation (320 nm) to detect the presence of the chelate (red-shifted emission).

NCM460 cells = settings: 1 mM, 1 h
Description: Before images were captured, an aliquot of the HEPES binding buffer was mounted on a slide and observed for any background fluorescence.

HSPC194 protein = HSPC194 protein (Homo sapiens, UniProt Q9P0S9); test: Elution of HSPC194 from affinity support column by compounds; settings: symbols not defined
Chain of HSPC194 protein (Q9P0S9 whole entry): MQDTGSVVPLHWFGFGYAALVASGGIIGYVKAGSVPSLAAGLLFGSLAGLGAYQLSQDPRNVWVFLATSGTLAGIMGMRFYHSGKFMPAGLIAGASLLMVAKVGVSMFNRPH
Description: Purified HSPC194 protein was captured on an affinity support column. The unbound contaminants, which have no affinity for the ligand, are washed through the column, leaving the HSPC194 protein bound to the matrix.

[16] = PZ-HVP-7, 1 mM chelate, 2 h, Table 4

Procedure for human cancer cell lines: To assess whether or not chelate treatment of cancer cells could produce a net modulation in cell growth, the overall growth inhibitory effect of chelates on various cancer cell lines was tested. The concentration of chelate necessary to produce 50% growth inhibition was measured, as determined by detection of the formazan product of cellular degradation of 3-(4,5-dimethylthiazol-2-yl)-5-(3-carboxymethoxyphenyl)-2-(4-sulfophenyl)-2H-tetrazolium, inner salt (MTS).

SMILES: CCOP(=O)([O-])CN1CCN(Cc2ccc3cc(C)ccc3n2)CCN(CP(=O)([O-])OCC)CCN(CP(=O)([O-])OCC)CC1.[Eu+3] [Eu-QCTME, Eu(III) N-(6-methyl-2-quinolylmethyl)-N′,N″,N′″-tris(methylenephosphonic acid ethyl ester)-1,4,7,10-tetraazacyclododecane]
- fluorescence in the cytoplasm, dose response (LNCaP cell line; 0-2000 μM, 2 hours, compared to PZ-HPV-7): significant increases in fluorescence
- Fluorescence/mg Cytoplasm (LNCaP cell line; 1 mM chelate, 2 h, Table 4): 3881
- Fluorescence/mg Membrane (LNCaP cell line; 1 mM chelate, 2 h, Table 4): 2561
- detectability in normal cells ([1]; PZ-HPV-7): significantly less detectable
- Fluorescence/mg Cytoplasm [1, 16]: 2247
- Fluorescence/mg Membrane [1, 16]: 2293
- Fluorescence/mg Membrane [2]: 1799
- permeability to apoptotic induced HEK293 cells [3]: permeable
- Fluorescence/mg Membrane ([3]; HEK293 Apoptotic (etoposide 20 μM, 24 hours), 1 mM chelate, 2 hours): 1697
- IC50 (C-33A cervical cells): 41 µM
- IC50 [4]: 134 µM
- IC50 [5]: 16 µM
- inhibitory activity, time course MTS ([6]; 500 μM, 24 hours): showed inhibitory activity
- IC50 ([6]; read-out: Chelate Concentration Producing 50% Inhibition of Cancer Cell Growth, MTS, 96 hour continuous exposure): 54.4 µM
- IC50 [7]: 21.9 µM
- IC50 [8]: 15.8 µM
- growth inhibition ([9]; LNCAP, 500 μM, 24 hours exposure): over 30%
- IC50 ([9]; read-out: Chelate Concentration Producing 50% Inhibition of Cancer Cell Growth, LnCaP, MTS, 96 hour continuous exposure): 46.4 µM
- inhibitory activity, time course MTS ([10]; MDA-231, 500 μM, 24 hours): showed inhibitory activity
- growth inhibition ([10]; MDA-MB-231, 500 μM, 24 hours exposure): over 30%
- IC50 ([10]; read-out: Chelate Concentration Producing 50% Inhibition of Cancer Cell Growth, MDA-231, MTS, 96 hour continuous exposure): 39.6 µM
- IC50 [11]: 46.8 µM
- IC50 [12]: 123 µM and 124 µM
- IC50 [13]: 140 µM
- permeability to cell membranes [14]: permeable to cancer cell membranes
- EuQCTME Cell Binding (fluorescence per well) (NCM-460 cells; 2 min): 2,757
- EuQCTME Cell Binding (fluorescence per well) (NCM-460 cells; 5 min): 3,325
- EuQCTME Cell Binding (fluorescence per well) (NCM-460 cells; 15 min): 14,042
- EuQCTME Cell Binding (fluorescence per well) (NCM-460 cells; 30 min): 18,535
- EuQCTME Cell Binding (fluorescence per well) (NCM-460 cells; 45 min): 18,737
- EuQCTME Cell Binding (fluorescence per well) (NCM-460 cells; 60 min): 20,666
- EuQCTME Cell Binding (fluorescence per well) (NCM-460 cells; 120 min): 2,388
- EuQCTME Cell Binding (fluorescence per well) (NCM-460 cells; 180 min): 1,598
- EuQCTME Cell Binding (fluorescence per well) (NCM-460 cells; 240 min): 16,682
- Totals: Normalized total area under each curve (AUC) (NCM-460 cells; over 240 min): 44
- EuQCTME Cell Binding (fluorescence per well) (DU145 cells; 2 min): 27,884
- EuQCTME Cell Binding (fluorescence per well) (DU145 cells; 5 min): 10,040
- EuQCTME Cell Binding (fluorescence per well) (DU145 cells; 15 min): 747
- EuQCTME Cell Binding (fluorescence per well) (DU145 cells; 30 min): 19,868
- EuQCTME Cell Binding (fluorescence per well) (DU145 cells; 45 min): 10,987
- EuQCTME Cell Binding (fluorescence per well) (DU145 cells; 60 min): 3,235
- EuQCTME Cell Binding (fluorescence per well) (DU145 cells; 120 min): 15,644
- EuQCTME Cell Binding (fluorescence per well) (DU145 cells; 180 min): 9,038
- EuQCTME Cell Binding (fluorescence per well) (DU145 cells; 240 min): 2,506
- Totals: Normalized total area under each curve (AUC) (DU145 cells; over 240 min): 49
- EuQCTME Cell Binding (fluorescence per well) (Caco-2 cells; 2 min): 4,708
- EuQCTME Cell Binding (fluorescence per well) (Caco-2 cells; 5 min): 3,391
- EuQCTME Cell Binding (fluorescence per well) (Caco-2 cells; 15 min): 6,806
- EuQCTME Cell Binding (fluorescence per well) (Caco-2 cells; 30 min): 11,168
- EuQCTME Cell Binding (fluorescence per well) (Caco-2 cells; 45 min): 10,872
- EuQCTME Cell Binding (fluorescence per well) (Caco-2 cells; 60 min): 21,176
- EuQCTME Cell Binding (fluorescence per well) (Caco-2 cells; 120 min): 29,389
- EuQCTME Cell Binding (fluorescence per well) (Caco-2 cells; 180 min): 31,510
- EuQCTME Cell Binding (fluorescence per well) (Caco-2 cells; 240 min): 4,575
- localization in adjacent normal tissue [15]: no detectable localization
- localization in diseased tissue (adenocarcinoma and pre-malignant neoplasm) [15]: found to localize in diseased tissue
- uptake by confocal microscopy (NCM460 cells): only a minimal uptake
- cancer cell lines significantly inhibited compared to control (human cancer cell lines): 8 of 10 cancer cell lines were significantly inhibited
- IC50 (human cancer cell lines; read-out: Half-maximum growth inhibition concentration, range over examined cancer cell lines, 96 hour continuous exposure): 16 to 140 µM
- time course cytotoxicity (human cancer cell lines; up to 48 hours, most malignant cell lines): lack of measurable cytotoxicity
- Elution of HSPC194 10 μM (HSPC194 protein; compound at 10 μM): 0
- Elution of HSPC194 50 μM (HSPC194 protein; compound at 50 μM): 0
